# Test results taken from US11053204B2, “Pyrimidinyloxy benzene derivatives as herbicides” (FMC Corporation, priority 2015, dated 2021).
# What was measured:
# Type in all cases: in vivo
# [1] = tested on: barnyardgrass (Echinochloa crus-galli); assay: Test A preemergence, visual injury rating; conditions: 0 to 100 scale (0 no effect, 100 complete control)
# Outline: (§1)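 Pre- and postemergence greenhouse screen. Soil: loam + sand. Spray carrier: solvent mixture, non-phytotoxic, with surfactant. Post timing at 1–2 leaves, height 2–10 cm. Readout: visual injury on a 0–100 scale roughly 10 days after application, untreated plants as reference.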
# corn (Zea mays) [2] = assay: Test A preemergence, visual injury rating; conditions: 0 to 100 scale (0 no effect, 100 complete control)
# Outline: as §1
# [3] = tested on: giant foxtail (Setaria faberii); assay: Test A preemergence, visual injury rating; conditions: 0 to 100 scale (0 no effect, 100 complete control)
# Outline: as §1
# [4] = tested on: large (Lg) crabgrass (Digitaria sanguinalis); assay: Test A preemergence, visual injury rating; conditions: 0 to 100 scale (0 no effect, 100 complete control)
# Outline: as §1
# [5] = tested on: morningglory (Ipomoea spp.); assay: Test A preemergence, visual injury rating; conditions: 0 to 100 scale (0 no effect, 100 complete control)
# Outline: as §1
# [6] = tested on: pigweed (Amaranthus retroflexus); assay: Test A preemergence, visual injury rating; conditions: 0 to 100 scale (0 no effect, 100 complete control)
# Outline: as §1
# [7] = tested on: velvetleaf (Abutilon theophrasti); assay: Test A preemergence, visual injury rating; conditions: 0 to 100 scale (0 no effect, 100 complete control)
# Outline: as §1
# [8] = tested on: wheat (Triticum aestivum); assay: Test A preemergence, visual injury rating; conditions: 0 to 100 scale (0 no effect, 100 complete control)
# Outline: as §1
# [9] = tested on: barnyardgrass (Echinochloa crus-galli); assay: Test A postemergence, visual injury rating; conditions: 0 is no effect, 100 is complete control
# Outline: as §1
# corn (Zea mays) [10] = assay: Test A postemergence, visual injury rating; conditions: 0 is no effect, 100 is complete control
# Outline: as §1
# [11] = tested on: giant foxtail (Setaria faberii); assay: Test A postemergence, visual injury rating; conditions: 0 is no effect, 100 is complete control
# Outline: as §1
# [12] = tested on: large (Lg) crabgrass (Digitaria sanguinalis); assay: Test A postemergence, visual injury rating; conditions: 0 is no effect, 100 is complete control
# Outline: as §1
# [13] = tested on: morningglory (Ipomoea spp.); assay: Test A postemergence, visual injury rating; conditions: 0 is no effect, 100 is complete control
# Outline: as §1
# [14] = tested on: pigweed (Amaranthus retroflexus); assay: Test A postemergence, visual injury rating; conditions: 0 is no effect, 100 is complete control
# Outline: as §1
# [15] = tested on: velvetleaf (Abutilon theophrasti); assay: Test A postemergence, visual injury rating; conditions: 0 is no effect, 100 is complete control
# Outline: as §1
# [16] = tested on: wheat (Triticum aestivum); assay: Test A postemergence, visual injury rating; conditions: 0 is no effect, 100 is complete control
# Outline: as §1
# [17] = tested on: barnyardgrass (Echinochloa crus-galli); assay: Test B flooded paddy test, plant response rating; conditions: 250 g ai/ha; Flood; scale of 0 to 100 where 0 is no effect and 100 is complete control; 13 to 15 days
# Outline: (§2)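 Under a constant 3 cm flood, test compounds went directly into the paddy water. Following 13 to 15 days of greenhouse growth, treated species and controls were compared by eye.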
# [18] = tested on: ducksalad (Heteranthera limosa); assay: Test B flooded paddy test, plant response rating; conditions: 250 g ai/ha; Flood; scale of 0 to 100 where 0 is no effect and 100 is complete control; 13 to 15 days
# Outline: as §2
# rice (Oryza sativa) = assay: Test B flooded paddy test, plant response rating; conditions: 250 g ai/ha; Flood; scale of 0 to 100 where 0 is no effect and 100 is complete control; 13 to 15 days
# Outline: as §2
# [19] = tested on: sedge, umbrella (small-flower umbrella sedge, Cyperus difformis); assay: Test B flooded paddy test, plant response rating; conditions: 250 g ai/ha; Flood; scale of 0 to 100 where 0 is no effect and 100 is complete control; 13 to 15 days
# Outline: as §2
structure (smiles),measurement,setting,value
"O=C(NCC(F)(F)F)c1ccccc1Oc1ncc(Cl)cn1 [Compound 28, 2-[(5-chloro-2-pyrimidinyl)oxy]-N-(2,2,2-trifluoroethyl)benzamide]",pest or weed control at 500 g/ha,"[1]; Echinochloa crus-galli, pre-emergence, 240 h, 500 g ai/ha, read-out: Barnyardgrass plant response rating",20%
same,Corn plant response rating,corn (Zea mays) [2]; 500 g ai/ha,0
same,pest or weed control at 500 g/ha,"[3]; Setaria faberi, pre-emergence, 240 h, 500 g ai/ha, read-out: Foxtail, Giant plant response rating",20%
same,"Crabgrass, Large plant response rating",[4]; 500 g ai/ha,50
same,Morningglory plant response rating,[5]; 500 g ai/ha,0
same,pest or weed control at 500 g/ha,"[6]; Amaranthus retroflexus, pre-emergence, 240 h, 500 g ai/ha, read-out: Pigweed plant response rating",80%
same,Velvetleaf plant response rating,[7]; 500 g ai/ha,20
same,Wheat plant response rating,[8]; 500 g ai/ha,0
same,pest or weed control at 500 g/ha,"[9]; Echinochloa crus-galli, post-emergence, 240 h, 500 g ai/ha, read-out: Barnyardgrass plant response rating (0 to 100 scale)",20%
same,plant injury at 500 g/ha,"corn (Zea mays) [10]; Zea mays, post-emergence, 240 h, 500 g ai/ha, read-out: Corn plant response rating (0 to 100 scale)",0%
same,pest or weed control at 500 g/ha,"[11]; Setaria faberi, post-emergence, 240 h, 500 g ai/ha, read-out: Foxtail, Giant plant response rating (0 to 100 scale)",0%
same,"Crabgrass, Large plant response rating (0 to 100 scale)",[12]; 500 g ai/ha,0
same,Morningglory plant response rating (0 to 100 scale),[13]; 500 g ai/ha,0
same,pest or weed control at 500 g/ha,"[14]; Amaranthus retroflexus, post-emergence, 240 h, 500 g ai/ha, read-out: Pigweed plant response rating (0 to 100 scale)",20%
same,Velvetleaf plant response rating (0 to 100 scale),[15]; 500 g ai/ha,30
same,plant injury at 500 g/ha,"[16]; Triticum aestivum, post-emergence, 240 h, 500 g ai/ha, read-out: Wheat plant response rating (0 to 100 scale)",0%
CC(=NOCc1ccccc1)c1ccccc1Oc1ncc(Cl)cn1 [Compound 58],Barnyardgrass plant response rating,[1]; 1000 g ai/ha,90
same,Corn plant response rating,corn (Zea mays) [2]; 1000 g ai/ha,20
same,"Foxtail, Giant plant response rating",[3]; 1000 g ai/ha,100
same,"Crabgrass, Large plant response rating",[4]; 1000 g ai/ha,100
same,Morningglory plant response rating,[5]; 1000 g ai/ha,0
same,Pigweed plant response rating,[6]; 1000 g ai/ha,50
same,Velvetleaf plant response rating,[7]; 1000 g ai/ha,20
same,Wheat plant response rating,[8]; 1000 g ai/ha,20
same,Barnyardgrass plant response rating (0 to 100 scale),[9]; 1000 g ai/ha,40
same,Corn plant response rating (0 to 100 scale),corn (Zea mays) [10]; 1000 g ai/ha,30
same,"Foxtail, Giant plant response rating (0 to 100 scale)",[11]; 1000 g ai/ha,60
same,"Crabgrass, Large plant response rating (0 to 100 scale)",[12]; 1000 g ai/ha,80
same,Morningglory plant response rating (0 to 100 scale),[13]; 1000 g ai/ha,30
same,Pigweed plant response rating (0 to 100 scale),[14]; 1000 g ai/ha,100
same,Velvetleaf plant response rating (0 to 100 scale),[15]; 1000 g ai/ha,90
same,Wheat plant response rating (0 to 100 scale),[16]; 1000 g ai/ha,20
same,"Plant response rating, Barnyardgrass",[17],0
same,"Plant response rating, Ducksalad",[18],0
same,"Plant response rating, Rice",rice (Oryza sativa),0
same,"Plant response rating, Sedge, Umbrella",[19],0
